Laboratory results: ChEMBL document CHEMBL1158204, “Metabolites from an Antarctic sponge-associated bacterium, Pseudomonas aeruginosa” (1996)
Active and inactive are the calls of the source. The calls are words filed in the database; no cut-off is given here.

Tests used:
Type in all cases: functional
Conditions in all cases: for MIC: 48 h
[1] = system: Staphylococcus aureus; assay: Antibacterial activity against Staphylococcus aureus after 2 days by disk assay
[2] = system: Bacillus cereus; assay: Antibacterial activity against Bacillus cereus after 2 days by disk assay
[3] = system: Micrococcus luteus; assay: Antibacterial activity against Micrococcus luteus after 2 days by disk assay

Structure (SMILES) | Activity [1] | Activity [2] | Activity [3] | MIC [1] | MIC [2] | MIC [3]
O=C1N[C@@H](Cc2ccc(O)cc2)C(=O)N2CCC[C@@H]12 | inactive | inactive | inactive | – | – | –
CSCC[C@@H]1NC(=O)[C@@H]2CCCN2C1=O | inactive | inactive | inactive | – | – | –
CC(C)C[C@@H]1NC(=O)[C@@H]2CCCN2C1=O | inactive | inactive | inactive | – | – | –
O=C(O)c1cccc2nc3ccccc3nc12 [PHENAZINE-1-CARBOXYLIC ACID] | – | – | – | < 5 µg/mL | < 0.5 µg/mL | < 5 µg/mL
CC[C@H](C)[C@@H]1NC(=O)[C@@H]2CCCN2C1=O | inactive | inactive | inactive | – | – | –
CC(C)[C@@H]1NC(=O)[C@@H]2CCCN2C1=O | inactive | inactive | inactive | – | – | –
NC(=O)c1cccc2nc3ccccc3nc12 | – | – | – | < 5 µg/mL | < 0.5 µg/mL | < 5 µg/mL
O=C1N[C@@H](Cc2ccccc2)C(=O)N2CCC[C@@H]12 | inactive | inactive | inactive | – | – | –
